Reference: PubChem BioAssay AID1259407 (Chemical Carcinogenesis Research Information System (CCRIS), 2018)
Activity calls are given as the source filed them. The rule behind the calls is not given here.

System: CCRIS mutagenicity, Ames/micronucleus/aberration tests
Test: CCRIS mutagenicity studies
[1] = Test System: AMES SALMONELLA TYPHIMURIUM, Strain/Indicator: TA100, Metabolic Activation: NONE, Method: STANDARD PLATE
[2] = Test System: AMES SALMONELLA TYPHIMURIUM, Strain/Indicator: TA1535, Metabolic Activation: NONE, Method: STANDARD PLATE
[3] = Test System: AMES SALMONELLA TYPHIMURIUM, Strain/Indicator: TA102, Metabolic Activation: NONE, Method: PREINCUBATION
[4] = Test System: AMES SALMONELLA TYPHIMURIUM, Strain/Indicator: TA98, Metabolic Activation: RAT, LIVER, S-9, AROCLOR 1254, Method: STANDARD PLATE
[5] = Test System: AMES SALMONELLA TYPHIMURIUM, Strain/Indicator: TA100, Metabolic Activation: RAT, LIVER, S-9, AROCLOR 1254, Method: STANDARD PLATE

Measured: mutagenic call

CC(=O)c1ccc(NO)cc1
active: [1] active; positive | Test System: E. COLI, Strain/Indicator: WP2 UVRA(P), Metabolic Activation: NONE, Method: STANDARD PLATE active; positive | Test System: E. COLI, Strain/Indicator: WP2 UVRA, Metabolic Activation: NONE, Method: STANDARD PLATE active; positive
inactive: [2] inactive; negative | Test System: E. COLI, Strain/Indicator: WP2 UVRA, Metabolic Activation: NONE, Method: FLUCTUATION TEST inactive; negative

COC(=O)c1ccccc1N
inactive: Test System: AMES SALMONELLA TYPHIMURIUM, Strain/Indicator: TA97, Metabolic Activation: NONE, Method: PREINCUBATION inactive; negative | Test System: AMES SALMONELLA TYPHIMURIUM, Strain/Indicator: TA97, Metabolic Activation: RAT, LIVER, S-9, AROCLOR 1254, Method: PREINCUBATION inactive; negative | Test System: AMES SALMONELLA TYPHIMURIUM, Strain/Indicator: TA98, Metabolic Activation: NONE, Method: PREINCUBATION inactive; negative | Test System: AMES SALMONELLA TYPHIMURIUM, Strain/Indicator: TA98, Metabolic Activation: S-9, Method: PREINCUBATION inactive; negative | Test System: AMES SALMONELLA TYPHIMURIUM, Strain/Indicator: TA100, Metabolic Activation: NONE, Method: PREINCUBATION inactive; negative | Test System: AMES SALMONELLA TYPHIMURIUM, Strain/Indicator: TA100, Metabolic Activation: S-9, Method: PREINCUBATION inactive; negative | [3] inactive; negative | Test System: AMES SALMONELLA TYPHIMURIUM, Strain/Indicator: TA102, Metabolic Activation: RAT, LIVER, S-9, AROCLOR 1254, Method: PREINCUBATION inactive; negative | Test System: UDS RODENT HEPATOCYTES, Strain/Indicator: THY INCORP (NON-S-PHASE), Metabolic Activation: NONE, Method: AUTORADIOGRAPHY inactive; negative

O=C([O-])/C=C/C(=O)[O-].[Fe+2]
inactive: Test System: AMES SALMONELLA TYPHIMURIUM, Strain/Indicator: TA98, Metabolic Activation: NONE, Method: STANDARD PLATE inactive; negative | Test System: AMES SALMONELLA TYPHIMURIUM, Strain/Indicator: TA100, Metabolic Activation: HAMSTER, LIVER, S-9, AROCLOR 1254, Method: STANDARD PLATE inactive; negative | [1] inactive; negative | [5] inactive; negative | Test System: AMES SALMONELLA TYPHIMURIUM, Strain/Indicator: TA102, Metabolic Activation: HAMSTER, LIVER, S-9, AROCLOR 1254, Method: STANDARD PLATE inactive; negative | [3] inactive; negative | Test System: AMES SALMONELLA TYPHIMURIUM, Strain/Indicator: TA102, Metabolic Activation: NONE, Method: STANDARD PLATE inactive; negative | Test System: AMES SALMONELLA TYPHIMURIUM, Strain/Indicator: TA102, Metabolic Activation: RAT, LIVER, S-9, AROCLOR 1254, Method: STANDARD PLATE inactive; negative | Test System: MOUSE LYMPHOMA, Strain/Indicator: L5178Y (TK+/TK-), Metabolic Activation: RAT, LIVER, S-9, AROCLOR 1254, Method: SUSPENSION/PLATE inactive; negative. reevaluation of results: negative
active: Test System: AMES SALMONELLA TYPHIMURIUM, Strain/Indicator: TA98, Metabolic Activation: HAMSTER, LIVER, S-9, AROCLOR 1254, Method: STANDARD PLATE active; positive | [4] active; positive | Test System: MOUSE LYMPHOMA, Strain/Indicator: L5178Y (TK+/TK-), Metabolic Activation: NONE, Method: SUSPENSION/PLATE active; positive. reevaluation of results: positive

C=CCC
inactive: Test System: AMES SALMONELLA TYPHIMURIUM, Strain/Indicator: TA98, Metabolic Activation: NONE, Method: GAS EXPOSURE inactive; negative | Test System: AMES SALMONELLA TYPHIMURIUM, Strain/Indicator: TA98, Metabolic Activation: RAT LIVER S-9, PHENOBARBITAL AND BETA-NAPHTHOFLAVONE (40%), Method: GAS EXPOSURE inactive; negative | Test System: AMES SALMONELLA TYPHIMURIUM, Strain/Indicator: TA100, Metabolic Activation: NONE, Method: GAS EXPOSURE inactive; negative | Test System: AMES SALMONELLA TYPHIMURIUM, Strain/Indicator: TA100, Metabolic Activation: RAT LIVER S-9, PHENOBARBITAL AND BETA-NAPHTHOFLAVONE (40%), Method: GAS EXPOSURE inactive; negative | Test System: AMES SALMONELLA TYPHIMURIUM, Strain/Indicator: TA1535, Metabolic Activation: NONE, Method: GAS EXPOSURE inactive; negative | Test System: AMES SALMONELLA TYPHIMURIUM, Strain/Indicator: TA1535, Metabolic Activation: RAT LIVER S-9, PHENOBARBITAL AND BETA-NAPHTHOFLAVONE (40%), Method: GAS EXPOSURE inactive; negative | Test System: AMES SALMONELLA TYPHIMURIUM, Strain/Indicator: TA1537, Metabolic Activation: NONE, Method: GAS EXPOSURE inactive; negative | Test System: AMES SALMONELLA TYPHIMURIUM, Strain/Indicator: TA1537, Metabolic Activation: RAT LIVER S-9, PHENOBARBITAL AND BETA-NAPHTHOFLAVONE (40%), Method: GAS EXPOSURE inactive; negative | Test System: E.COLI, Strain/Indicator: WP2UVRA, Metabolic Activation: NONE, Method: GAS EXPOSURE inactive; negative | Test System: E.COLI, Strain/Indicator: WP2UVRA, Metabolic Activation: RAT LIVER S-9, PHENOBARBITAL AND BETA-NAPHTHOFLAVONE (40%), Method: GAS EXPOSURE inactive; negative

CC(=O)[O][Sn]([c]1ccccc1)([c]1ccccc1)[c]1ccccc1
active: End Point: IN VIVO MICRONUCLEUS, Test System: BONE MARROW POLYCHROMATIC ERYTHROCYTES, Species: MOUSE, Strain/Sex: SWISS/MALE, FEMALE, Route: IP 2X IN AQUEOUS SUSPENSION WITHIN 24 HR active; positive

O=C1c2ccc(O)c(O)c2C(=O)c2c(O)ccc(O)c21
inactive: [4] inactive; negative | [1] inactive; negative | [5] inactive; negative | [2] inactive; negative | Test System: AMES SALMONELLA TYPHIMURIUM, Strain/Indicator: TA1535, Metabolic Activation: RAT, LIVER, S-9, AROCLOR 1254, Method: STANDARD PLATE inactive; negative | Test System: AMES SALMONELLA TYPHIMURIUM, Strain/Indicator: TA1538, Metabolic Activation: RAT, LIVER, S-9, AROCLOR 1254, Method: STANDARD PLATE inactive; negative
active: Test System: AMES SALMONELLA TYPHIMURIUM, Strain/Indicator: TA1537, Metabolic Activation: NONE, Method: STANDARD PLATE active; positive | Test System: AMES SALMONELLA TYPHIMURIUM, Strain/Indicator: TA1537, Metabolic Activation: RAT, LIVER, S-9, AROCLOR 1254, Method: STANDARD PLATE active; positive
